From patent US4520031A, “Method for reducing toxic effects of methyl-glyoxal bis-guanylhydrazone” (priority 1982, dated 1985)
Entries after “also recorded” stand apart in the source; their conditions may differ. Read-outs that look alike come from different tables or passages of the source.

Assays:
[1] = tested on: advanced malignant disease; test: Response to weekly MGBG, all diagnoses (Table I); assay type: in vivo, human
Experimental: (§1) During the course of the clinical experiments, MGBG was administered to patients in approximately weekly doses ranging from 250 to 1000 mg per square meter.
(§2) Pre-treatment minimum evaluation included chest roentgenogram, liver and renal function tests, complete blood count with differential and platelet count and serum glucose. Pre-treatment performance status was recorded for each patient in accordance with SWOG criteria.
(§3) This intravenous infusion is administered to the patient over a period of time not less than 30 minutes. Accordingly, an approximation of the patient's surface area in square meters is calculated using a height and weight to surface area nomogram (listed in Documenta Geigy, Scientific Tables (1970) p. 537) and this factor is applied in determining the appropriate amount of MGBG salt to be added to the infusion solution. […] In the absence of toxicity, subsequent doses of MGBG are increased by 100 mg/m^2 over the previous week's dose. If patients experience moderate or severe reversible toxicity, the dose is reduced by 100 mg/m^2 relative to the previous week's dose. No change in dosage strength is made for mild toxicity.

Renal = test: Response to weekly MGBG, renal; assay type: in vivo, human
Experimental: as §1, §2, §3

Pancreas = test: Response to weekly MGBG, pancreas; assay type: in vivo, human; conditions: 5 evaluable patients
Experimental: as §1, §2, §3

Breast = test: Response to weekly MGBG, breast; assay type: in vivo, human; conditions: 12 evaluable patients
Experimental: as §1, §2, §3

Lymphoma = test: Response to weekly MGBG, lymphoma; assay type: in vivo, human; conditions: 2 evaluable patients
Experimental: as §1, §2, §3

Hepatoma = test: Response to weekly MGBG, hepatoma; assay type: in vivo, human; conditions: 1 evaluable patient
Experimental: as §1, §2, §3

Melanoma = test: Response to weekly MGBG, melanoma; assay type: in vivo, human; conditions: 1 evaluable patient
Experimental: as §1, §2, §3

Leukemia = test: Response to weekly MGBG, leukemia; assay type: in vivo, human; conditions: 1 mg/m^2 weekly for three weeks; 1 evaluable patient
Experimental: **Patient received 1 mg/m^2 weekly for three weeks

Ewings = test: Response to weekly MGBG, Ewings; assay type: in vivo, human; conditions: 1 evaluable patient
Experimental: as §1, §2, §3

Oat Cell = test: Response to weekly MGBG, oat cell; assay type: in vivo, human; conditions: 1 evaluable patient
Experimental: as §1, §2, §3

[2] = tested on: acute myelocytic leukemia; conditions: cited from earlier work
[3] = tested on: mitochondrial respiration; conditions: in vitro; cited from earlier work
leukemia-L1210 = conditions: Freelander and French; cited from earlier work
adenocarcinoma-755 = conditions: Freelander and French; cited from earlier work
[4] = human subjects undergoing MGBG treatment; cited from earlier work
DNA synthesis = conditions: reversed by exogenous spermidine; cited from earlier work
[5] = cited from earlier work; for Penile inflammation: % of male population
[6] = some peculiar to certain animal species; cited from earlier work
[7] = cited from earlier work
[8] = Group I, less than 100 mg/m^2/day
[9] = Group II, 100 to 125 mg/m^2/day
[10] = Group III, 126 to 160 mg/m^2/day
[11] = acute leukemia, iv 150 mg/m^2/day
[12] = lymphomas and solid tumors, iv 150 mg/m^2/day

Structure (SMILES): CC(C=NNC(=N)N)=NNC(=N)N [MGBG, 1,1'-[(methylethanediylidene)dinitrilo] diguanidine]
- biologic effect at 250 mg/m^2 ([1]; 12 patients, 250 mg/m^2): no apparent biologic effect
- response at 250 mg/m^2 weekly ([1]; first twelve patients, 250 mg/m^2 weekly): no response
- CR (Complete response), total ([1]; weekly, 65 evaluable patients): 2
- CR + PR, total ([1]; weekly, 65 evaluable patients): 11
- IMP (Improvement noted), total ([1]; weekly, 65 evaluable patients): 9
- No Response, total ([1]; weekly, 65 evaluable patients): 45
- PR (Partial response), total ([1]; weekly, 65 evaluable patients): 9
- antineoplastic activity in solid tumors ([1]; weekly, colon, esophageal, renal cell, prostate, and breast carcinoma): effective
- CR + PR (Renal; 5 evaluable patients): 1
- IMP (Improvement noted) (Renal; 5 evaluable patients): 2
- No Response (Renal; 5 evaluable patients): 2
- PR (Partial response) (Renal; 5 evaluable patients): 1
- Duration Months (Renal; duration of CR + PR): 5 Months
- CR + PR (Pancreas): 2
- No Response (Pancreas): 3
- PR (Partial response) (Pancreas): 2
- IMP (Improvement noted) (Breast): 2
- No Response (Breast): 10
- No Response (Lymphoma): 2
- No Response (Hepatoma): 1
- IMP (Improvement noted) (Melanoma): 1
- IMP (Improvement noted) (Leukemia): 1
- No Response (Ewings): 1
- IMP (Improvement noted) (Oat Cell): 1
- remission rate (complete remissions) ([2]; average daily parenteral dose of 126 to 160 mg/m^2, Levin et al.): 45%
- activity in acute myelocytic leukemia ([2]; daily dosing schedule): major activity
- median increase in survival ([2]; from 2.5 months, compared to patients with myeloblastic leukemia treated with 6-mercaptopurine): 6.5 months
- concentration with complete inhibition of mitochondrial respiration [3]: ≥ 30 µg/mL
- antitumor activity (leukemia-L1210): growth inhibiting effects; also recorded: antitumor activity
- antitumor activity (adenocarcinoma-755): antitumor activity
- toxic effects unique to man [4]: esophagitis, ulcerative pharyngitis, laryngitis, stomatitis, genital mucosa swelling, conjunctivitis, mucositis, erythema, edema, desquamating dermatitis, and profound anorexia with associated weight loss; also recorded: mucositis, vasculitis, and profound anorexia with associated weight loss
- MGBG-mediated depression of DNA synthesis, associated changes (DNA synthesis): spermidine depletion and putrescine accumulation
- Acroerythema (number of patients) [5, 8]: 0 patients
- Diarrhea [5, 8]: 40%
- Diarrhea (number of patients) [5, 8]: 4 patients
- Died during treatment [5, 8]: 42%
- Died during treatment (number of patients) [5, 8]: 5 patients
- Erythema Nodosum [5, 8]: 10%
- Erythema Nodosum (number of patients) [5, 8]: 1 patients
- Mucosal involvement [5, 8]: 80%
- Mucosal involvement (number of patients) [5, 8]: 8 patients
- Penile inflammation (number of patients) [5, 8]: 0 patients
- Vasculitis [5, 8]: 40%
- Vasculitis (number of patients) [5, 8]: 4 patients
- Weight Loss (Median %) [5, 8]: 0%
- Penile inflammation [5, 9]: 25%
- Acroerythema [5, 9]: 17%
- Acroerythema (number of patients) [5, 9]: 4 patients
- Diarrhea [5, 9]: 41%
- Diarrhea (number of patients) [5, 9]: 6 patients
- Died during treatment [5, 9]: 62%
- Died during treatment (number of patients) [5, 9]: 10 patients
- Erythema Nodosum [5, 9]: 9%
- Erythema Nodosum (number of patients) [5, 9]: 2 patients
- Mucosal involvement [5, 9]: 98%
- Mucosal involvement (number of patients) [5, 9]: 15 patients
- Penile inflammation (number of patients) [5, 9]: 3 patients
- Vasculitis [5, 9]: 25%
- Vasculitis (number of patients) [5, 9]: 5 patients
- Weight Loss (Median %) [5, 9]: 6%
- Penile inflammation [5, 10]: 23%
- Acroerythema [5, 10]: 17%
- Acroerythema (number of patients) [5, 10]: 6 patients
- Diarrhea [5, 10]: 42%
- Diarrhea (number of patients) [5, 10]: 15 patients
- Died during treatment [5, 10]: 30%
- Died during treatment (number of patients) [5, 10]: 11 patients
- Erythema Nodosum [5, 10]: 12%
- Erythema Nodosum (number of patients) [5, 10]: 3 patients
- Mucosal involvement [5, 10]: 91%
- Mucosal involvement (number of patients) [5, 10]: 31 patients
- Penile inflammation (number of patients) [5, 10]: 4 patients
- Vasculitis [5, 10]: 25%
- Vasculitis (number of patients) [5, 10]: 8 patients
- Weight Loss (Median %) [5, 10]: 10%
- Acroerythema ([5]; Group IV, over 160 mg/m^2/day): 20%
- Acroerythema (number of patients) ([5]; Group IV, over 160 mg/m^2/day): 2 patients
- Diarrhea ([5]; Group IV, over 160 mg/m^2/day): 20%
- Diarrhea (number of patients) ([5]; Group IV, over 160 mg/m^2/day): 2 patients
- Died during treatment ([5]; Group IV, over 160 mg/m^2/day): 83%
- Died during treatment (number of patients) ([5]; Group IV, over 160 mg/m^2/day): 10 patients
- Erythema Nodosum (number of patients) ([5]; Group IV, over 160 mg/m^2/day): 0 patients
- Mucosal involvement ([5]; Group IV, over 160 mg/m^2/day): 100%
- Mucosal involvement (number of patients) ([5]; Group IV, over 160 mg/m^2/day): 10 patients
- Penile inflammation (number of patients) ([5]; Group IV, over 160 mg/m^2/day): 0 patients
- Vasculitis ([5]; Group IV, over 160 mg/m^2/day): 20%
- Vasculitis (number of patients) ([5]; Group IV, over 160 mg/m^2/day): 2 patients
- Weight Loss (Median %) ([5]; Group IV, over 160 mg/m^2/day): 5%
- incidence of toxicity under other schedules ([5]; continuous 24-hour infusion, very high initial dose then lower maintenance doses, versus daily dosing): neither of these regimens altered the incidence of associated toxicity
- toxicological effects observed [6]: gastrointestinal toxicity, delayed and fatal hypoglycemia, hepatic and renal damage, bone marrow depression, diarrhea and phlebitis
- Leukopenia <3000/mm^3 or <50% of initial value [7, 11]: 16 patients
- Leukopenia <3000/mm^3 or <50% of initial value, severe toxicity which contributed to death [7, 11]: 1 patients
- response to MGBG ([7]; intravenous 150 mg/m^2/day, Regelson and Holland): seen only in the presence of significant toxicity which seriously compromised any clinical improvement
- "Myositis" ([7]; iv 150 mg/m^2/day, 46 patients): 5 patients
- Cutaneous lesions ([7]; iv 150 mg/m^2/day, 46 patients): 12 patients
- Diarrhea ([7]; iv 150 mg/m^2/day, 46 patients): 32 patients
- Diarrhea, severe toxicity which contributed to death ([7]; iv 150 mg/m^2/day, 46 patients): 1 patients
- Oropharyngeal and/or esophageal toxicity ([7]; iv 150 mg/m^2/day, 63 courses in 46 patients): 43 patients
- Hypoglycemia <60 mg % ([7]; iv 150 mg/m^2/day): 4 patients
- Hypoglycemia <60 mg %, severe toxicity which contributed to death ([7]; iv 150 mg/m^2/day): 2 patients
- Laryngitis ([7]; iv 150 mg/m^2/day): 14 patients
- Laryngitis, severe toxicity which contributed to death ([7]; iv 150 mg/m^2/day): 1 patients
- Proctitis ([7]; iv 150 mg/m^2/day): 2 patients
- Vulvovaginitis ([7]; iv 150 mg/m^2/day): 4 patients
- Leukopenia <3000 mm^3 [7, 12]: 5 patients
- Leukopenia <3000 mm^3, severe toxicity which contributed to death [7, 12]: 1 patients
- Thrombocytopenia <75,000/mm^3 [7, 12]: 3 patients
- deaths to which severe toxicity contributed ([7]; of 27 patients who died while on study): 6 patients
